According to patent US20240217963A1, “RECEPTOR-INTERACTING PROTEIN 1 INHIBITORS, PREPARATIONS, AND USES THEREOF” (SIRONAX LTD., priority 2021, published 2024):
pEC50: −log10 of the molar value.

target: T1, RIP1 (Homo sapiens, UniProt Q13546); experiment: Cellular RIP1 inhibitory activity: HT-29 necroptosis (TNFα/SMAC mimetic/zVAD-FMK) CellTiter-Glo viability assay; type: cell-based; settings: HT-29 cells, TNF-α 10 ng/ml + SMAC mimetic 6 μM + zVAD-FMK 10 μM, 20 hours, geometric mean, read-out: EC50 Values of in vitro Cellular RIP1 Inhibitory Activity
T1 sequence (Q13546 1-671): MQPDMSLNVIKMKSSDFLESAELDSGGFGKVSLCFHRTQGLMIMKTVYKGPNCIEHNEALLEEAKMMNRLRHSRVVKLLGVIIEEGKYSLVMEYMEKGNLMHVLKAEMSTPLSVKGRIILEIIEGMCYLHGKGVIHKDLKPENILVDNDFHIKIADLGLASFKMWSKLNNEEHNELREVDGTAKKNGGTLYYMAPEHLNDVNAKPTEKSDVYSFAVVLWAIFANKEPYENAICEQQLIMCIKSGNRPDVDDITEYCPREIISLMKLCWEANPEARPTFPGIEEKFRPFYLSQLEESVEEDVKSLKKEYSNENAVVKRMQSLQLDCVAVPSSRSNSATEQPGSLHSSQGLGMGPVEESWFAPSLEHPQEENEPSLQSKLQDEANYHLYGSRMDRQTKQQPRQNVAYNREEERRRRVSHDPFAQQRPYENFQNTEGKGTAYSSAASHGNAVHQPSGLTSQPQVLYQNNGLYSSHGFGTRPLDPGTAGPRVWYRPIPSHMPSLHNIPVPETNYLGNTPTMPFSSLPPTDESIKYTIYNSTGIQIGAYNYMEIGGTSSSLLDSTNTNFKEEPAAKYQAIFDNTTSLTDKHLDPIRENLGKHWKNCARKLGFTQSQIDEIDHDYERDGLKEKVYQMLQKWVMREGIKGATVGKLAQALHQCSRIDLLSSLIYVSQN
Protocol: Compounds 1-99 (denoted as Cmpd Nos. 1 through 99 in Table 2 below) of the disclosure were tested for binding and cellular RIP1 inhibitory activity following the experimental procedures described below. Cell Seeding • 1. HT-29 cells were checked every day to make sure that they were healthy and growing as expected. They were subjected to sub-culturing when they were approximately 80% confluent. • 2. The culture medium, McCOY's 5 A medium (Gibco, Cat No. 16600-082) with 10% fetal bovine serum or FBS (Gibco, Cat No. 10099-141C), was pre-warmed in a 37° C. water bath for at least 30 min. • 3. When the cells had reached a desired level of confluency of 80% in a T75 flask, the medium was aspirated, and the cells were washed with warm phosphate buffered saline or PBS two times. • 4. 2-3 ml fresh warm trypsin (Gibco, Cat No. 25200-056) solution was added to the washed cells. The flask with the cells was transferred to a 37° C. incubator. • 5. After 5 minutes, the side of the flask was tapped, and the flask was examined under a microscope for detachment of the cells to the flask. If necessary, the cells were kept in the incubator for an additional 5-10 minutes, with occasional tapping, until lifting was complete. • 6. The trypsin reaction was neutralized by transferring 6-9 ml cell culture medium to sterile 15 ml conical tubes, and by centrifuging the cell culture at 300×g for 7 minutes to pellet the cells (supernatant decanted). • 7. The cells were resuspended in fresh cell culture medium and the cell counting was performed using a hemocytometer. • 8. 100 μl of the resuspended cell culture medium containing ˜5,000 cells were transferred into each well of the sterile 96-well cell culture plate (Corning 3903) and cultured overnight at 37° C. with 5% CO2. Compound Titration and Treatment • 1. All test compounds were dissolved in DMSO (Dimethyl sulfoxide) to create a 20 mM stock. • 2. 3 μl of each compound 20 mM stock was mixed with 27 μl DMSO, and the compound solution was further diluted at a titration ratio of 1:3 (20 μl compound solution+40 μl DMSO) till the 10 points end. • 3. All culture medium was removed from assay plates filled with HT-29 cell cultures. […] 0.5 μL of the diluted compound solution was added to the corresponding 96-well assay plates. • 5. The assay plates were incubated for 20 hours at 37° C. with 5% CO2. Cell Viability Detection • 1. The CellTiter-Glo® Luminescent Cell Viability Assay was employed to detect the ATP levels of viable HT-29 cells. • 2. The CellTiter-Glo® buffer and the lyophilized substrate were equilibriated to room temperature prior to use. • 3. The CellTiter-Glo® substrate was resuspended with CellTiter-Glo® buffer, then mixed by gently vortexing to obtain a homogeneous solution. • 4. 20 μl the enzyme/substrate mixture was transferred by multi-channel pipetting into 96-well assay plates. • 5. The assay plates were placed on an orbital shaker and the contents were shaken for 3 minutes to induce cell lysis. • 6. The assay plates were incubated at room temperature for 10 minutes to stabilize the luminescent signal. • 7. The luminescence signals were read and recorded with EnVision. • 8. The geometric mean EC50 values were calculated from 10 points response dose with duplicates. In Table 2, activity is provided as follows: +++=0.1 nM≤EC50<100 nM; ++=100 nM≤EC50<1000 nM; +=1000 nM≤EC50<10000 nM.

Row | Structure (SMILES) | pEC50
1 | Cc1nc(C)n(-c2nc(N3CCC(C(=O)N(O)Cc4cc(F)cc(F)c4)CC3)ncc2F)n1 [Compound 1, N-(3,5-difluorobenzyl)-1-(4-(3,5-dimethyl-1H-1,2,4-triazol-1-yl)-5-fluoropyrimidin-2-yl)-N-hydroxypiperidine-4-carboxamide] | 7.00 to 10.00
2 | Cc1nc(C)n(-c2nc(N3CCC(C(=O)NCc4cc(F)cc(F)c4)CC3)ncc2F)n1 [Compound 2, N-(3,5-difluorobenzyl)-1-(4-(3,5-dimethyl-1H-1,2,4-triazol-1-yl)-5-fluoropyrimidin-2-yl)piperidine-4-carboxamide] | 7.00 to 10.00
3 | Cc1cnn(C)c1-c1nc(N2CCC(C(=O)N(O)Cc3cnn(C)c3)CC2)ncc1F [Compound 3, 1-(4-(1,4-dimethyl-1H-pyrazol-5-yl)-5-fluoropyrimidin-2-yl)-N-hydroxy-N-((1-methyl-1H-pyrazol-4-yl)methyl)piperidine-4-carboxamide] | 7.00 to 10.00
4 | Cc1cnn(C)c1-c1nc(N2CCC(C(=O)N(O)Cc3cc(F)cc(F)c3)CC2)ncc1F [Compound 4, N-(3,5-difluorobenzyl)-1-(4-(1,4-dimethyl-1H-pyrazol-5-yl)-5-fluoropyrimidin-2-yl)-N-hydroxypiperidine-4-carboxamide] | 7.00 to 10.00
5 | Cc1nc(C)n(-c2nc(N3CCC(C(=O)NCc4cc(F)cc(F)c4F)CC3)ncc2F)n1 [Compound 5, 1-(4-(3,5-dimethyl-1H-1,2,4-triazol-1-yl)-5-fluoropyrimidin-2-yl)-N-(2,3,5-trifluorobenzyl)piperidine-4-carboxamide] | 7.00 to 10.00
6 | Cc1cnn(C)c1-c1nc(N2CCC(C(=O)NCc3cc(F)cc(F)c3F)CC2)ncc1F [Compound 6, 1-(4-(1,4-dimethyl-1H-pyrazol-5-yl)-5-fluoropyrimidin-2-yl)-N-(2,3,5-trifluorobenzyl)piperidine-4-carboxamide] | 7.00 to 10.00
7 | Cc1nc(C)n(-c2nc(N3CCC(C(=O)N(O)Cc4ccccn4)CC3)ncc2F)n1 [Compound 7, 1-(4-(3,5-dimethyl-1H-1,2,4-triazol-1-yl)-5-fluoropyrimidin-2-yl)-N-h ydroxy-N-(pyridin-2-ylmethyl)piperidine-4-carboxamide] | 6.00 to 7.00
8 | Cc1cnn(C)c1-c1nc(N2CCC(C(=O)N(O)Cc3ncccc3F)CC2)ncc1F [Compound 8, 1-(4-(1,4-dimethyl-1H-pyrazol-5-yl)-5-fluoropyrimidin-2-yl)-N-((3-fluoropyridin-2-yl)methyl)-N-hydroxypiperidine-4-carboxamide] | 7.00 to 10.00
9 | Cc1cnn(C)c1-c1nc(N2CCC(C(=O)N(O)Cc3ncccc3Cl)CC2)ncc1F [Compound 9, N-((3-chloropyridin-2-yl)methyl)-1-(4-(1,4-dimethyl-1H-pyrazol-5-yl)-5-fluoropyrimidin-2-yl)-N-hydroxypiperidine-4-carboxamide] | 7.00 to 10.00
10 | Cc1cnn(C)c1-c1nc(N2CCC(C(=O)N(O)Cc3ccc(F)cn3)CC2)ncc1F [Compound 10, 1-(4-(1,4-dimethyl-1H-pyrazol-5-yl)-5-fluoropyrimidin-2-yl)-N-((5-fluoropyridin-2-yl)methyl)-N-hydroxypiperidine-4-carboxamide] | 7.00 to 10.00
11 | Cc1cnn(C)c1-c1nc(N2CCC(C(=O)N(O)Cc3ccncc3F)CC2)ncc1F [Compound 11, 1-(4-(1,4-dimethyl-1H-pyrazol-5-yl)-5-fluoropyrimidin-2-yl)-N-((3-fluoropyridin-4-yl)methyl)-N-hydroxypiperidine-4-carboxamide] | 7.00 to 10.00
12 | Cc1cnn(C)c1-c1nc(N2CCC(C(=O)N(O)Cc3nccs3)CC2)ncc1F [Compound 12, 1-(4-(1,4-dimethyl-1H-pyrazol-5-yl)-5-fluoropyrimidin-2-yl)-N-hydroxy-N-(thiazol-2-ylmethyl)piperidine-4-carboxamide] | 7.00 to 10.00
13 | Cc1nc(C)n(-c2nc(N3CCC(C(=O)N(O)Cc4ncccc4F)CC3)ncc2F)n1 [Compound 13, 1-(4-(3,5-dimethyl-1H-1,2,4-triazol-1-yl)-5-fluoropyrimidin-2-yl)-N-((3-fluoropyridin-2-yl)methyl)-N-hydroxypiperidine-4-carboxamide] | 7.00 to 10.00
14 | Cc1nc(C)n(-c2nc(N3CCC(F)(C(=O)N(O)Cc4cc(F)cc(F)c4)CC3)ncc2F)n1 [Compound 14, N-(3,5-difluorobenzyl)-1-(4-(3,5-dimethyl-1H-1,2,4-triazol-1-yl)-5-fluoropyrimidin-2-yl)-4-fluoro-N-hydroxypiperidine-4-carboxamide] | 7.00 to 10.00
15 | Cn1ncnc1-c1nc(N2CCC(C(=O)N(O)Cc3cc(F)cc(F)c3)CC2)ncc1F [Compound 15, N-(3,5-difluorobenzyl)-1-(5-fluoro-4-(1-methyl-1H-1,2,4-triazol-5-yl)pyrimidin-2-yl)-N-hydroxypiperidine-4-carboxamide] | 7.00 to 10.00
16 | Cc1cnn(C)c1-c1nc(N2CCC(C(=O)N(O)Cc3cncs3)CC2)ncc1F [Compound 16, 1-(4-(1,4-dimethyl-1H-pyrazol-5-yl)-5-fluoropyrimidin-2-yl)-N-hydroxy-N-(thiazol-5-ylmethyl)piperidine-4-carboxamide] | 7.00 to 10.00
17 | Cc1cnn(C)c1-c1nc(N2CCC(F)(C(=O)N(O)Cc3cc(F)cc(F)c3)CC2)ncc1F [Compound 17, N-(3,5-difluorobenzyl)-1-(4-(1,4-dimethyl-1H-pyrazol-5-yl)-5-fluoropyrimidin-2-yl)-4-fluoro-N-hydroxypiperidine-4-carboxamide] | 7.00 to 10.00
18 | Cn1ncnc1-c1nc(N2CCC(C)(C(=O)N(O)Cc3cc(F)cc(F)c3)CC2)ncc1F [Compound 18, N-(3,5-difluorobenzyl)-1-(5-fluoro-4-(1-methyl-1H-1,2,4-triazol-5-yl)pyrimidin-2-yl)-N-hydroxy-4-methylpiperidine-4-carboxamide] | 7.00 to 10.00
19 | Cn1ncnc1-c1nc(N2CCC(F)(C(=O)N(O)Cc3cc(F)cc(F)c3)CC2)ncc1F [Compound 19, N-(3,5-difluorobenzyl)-4-fluoro-1-(5-fluoro-4-(1-methyl-1H-1,2,4-triazol-5-yl)pyrimidin-2-yl)-N-hydroxypiperidine-4-carboxamide] | 7.00 to 10.00
20 | Cc1cnn(C)c1-c1nc(N2CCC(C(=O)N(O)Cc3ccnc(F)c3)CC2)ncc1F [Compound 20, 1-(4-(1,4-dimethyl-1H-pyrazol-5-yl)-5-fluoropyrimidin-2-yl)-N-((2-fluoropyridin-4-yl)methyl)-N-hydroxypiperidine-4-carboxamide] | 7.00 to 10.00
21 | Cn1ncnc1-c1nc(N2CCC(C(=O)NCc3cc(F)cc(F)c3F)CC2)ncc1F [Compound 21, 1-(5-fluoro-4-(1-methyl-1H-1,2,4-triazol-5-yl)pyrimidin-2-yl)-N-(2,3,5-trifluorobenzyl)piperidine-4-carboxamide] | 7.00 to 10.00
22 | Cc1nc(C)c(CNC(=O)C2CCN(c3ncc(F)c(-c4c(C)cnn4C)n3)CC2)s1 [Compound 22, 1-(4-(1,4-dimethyl-1H-pyrazol-5-yl)-5-fluoropyrimidin-2-yl)-N-((2,4-dimethylthiazol-5-yl)methyl)piperidine-4-carboxamide] | 6.00 to 7.00
